# Values quoted from earlier work in patent US12102628B2, “Composition and methods for the treatment of myopia” (Seinda Pharmaceutical Guangzhou Corporation, priority 2017, dated 2024).
# Where two headings read alike, the source gives them in different places.
# How the values were obtained:
# [1] = system: pupil
# [2] = ophthalmic use, concentrations per Table 2
# [3] = system: myopic children; conditions: for Myopia progression: myopic children
# [4] = not given; remark: listed apart in the source
# [5] = target: M3 receptor (Homo sapiens, UniProt P20309); conditions: M3 receptor-selective antagonists
# M3 receptor, sequence (P20309 whole entry): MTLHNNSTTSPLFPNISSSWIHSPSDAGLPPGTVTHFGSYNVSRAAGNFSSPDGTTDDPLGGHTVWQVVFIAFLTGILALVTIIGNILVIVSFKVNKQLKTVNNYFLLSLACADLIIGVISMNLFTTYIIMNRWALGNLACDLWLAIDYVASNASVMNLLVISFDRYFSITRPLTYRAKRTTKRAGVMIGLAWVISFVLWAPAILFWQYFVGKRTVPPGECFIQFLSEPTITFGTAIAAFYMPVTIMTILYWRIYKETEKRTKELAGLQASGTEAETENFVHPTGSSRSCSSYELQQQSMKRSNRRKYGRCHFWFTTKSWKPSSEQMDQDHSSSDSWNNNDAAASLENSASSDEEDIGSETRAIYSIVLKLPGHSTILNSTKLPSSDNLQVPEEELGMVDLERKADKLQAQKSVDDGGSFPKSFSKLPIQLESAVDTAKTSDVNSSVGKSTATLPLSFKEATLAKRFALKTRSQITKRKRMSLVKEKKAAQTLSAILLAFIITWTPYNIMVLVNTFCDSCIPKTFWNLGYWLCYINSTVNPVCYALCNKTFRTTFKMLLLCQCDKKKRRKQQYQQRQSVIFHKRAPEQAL
Compound,Acting Duration [2] [days],logP,Aqueous Solubility [4] [µg/mL],also measured
"CN1[C@@H]2CC[C@H]1C[C@@H](OC(=O)C(CO)c1ccccc1)C2 (stereo partly drawn) [Atropine, atropine]",7 to 14,–,–,"Pupil dilation diameter ([1]; 0.05% atropine solution, control group 2.93 mm): 5.52 mm; Photophobia ratio ([1]; low concentration atropine group): about 66.67%; Effect on myopia progression (in words) ([3]; 0.5% atropine solution): effectively slow the myopia progression; Myopia progression ([3]; atropine concentration 0.1%): 0.47 diopter/yr; Myopia progression ([3]; atropine concentration 0.25%): 0.45 diopter/yr; Myopia progression ([3]; atropine concentration 0.5%): 0.04 diopter/yr"
CN(C)CCOC(=O)C(c1ccccc1)C1(O)CCCC1 (stereo not drawn) [Cyclopentolate],4,–,–,–
NC(=O)C(c1ccccc1)(c1ccccc1)[C@@H]1CCN(CCc2ccc3c(c2)CCO3)C1 [Darifenacin],–,4.5,6030,–
CN1CCN(CC(=O)N2c3ccccc3C(=O)Nc3cccnc32)CC1 [Pirenzepine],<1,–,–,–
c1ccc(C(O[C@@H]2CCCN(CCc3ccc4c(c3)OCO4)C2)c2ccccc2)cc1 [Zamifenacin],–,4.4,20,Affinity (pKi) [5]: 9.3
Tiotropium,–,–,25000,–
